Source: publication PMC5687316 (Acta Pharmaceutica Sinica. B, 2017)
Structures can show the parent of a compound that is named as a salt.

Experiments:
UGT1A1 = target: T1, UGT1A1 (Homo sapiens, UniProt P22309); assay: Inhibition of NCHN-4-O-glucuronidation in recombinant human UGT1A1; format: biochemical; details: for activity at 50 min, 10 µmol/L: human, recombinant human UGT1A1, pH 7.4, probe NCHN (NCHN-4-O-glucuronidation); for Inhibition type: recombinant human UGT1A1, Lineweaver-Burk and Dixon plots
T1 sequence (P22309 26-533): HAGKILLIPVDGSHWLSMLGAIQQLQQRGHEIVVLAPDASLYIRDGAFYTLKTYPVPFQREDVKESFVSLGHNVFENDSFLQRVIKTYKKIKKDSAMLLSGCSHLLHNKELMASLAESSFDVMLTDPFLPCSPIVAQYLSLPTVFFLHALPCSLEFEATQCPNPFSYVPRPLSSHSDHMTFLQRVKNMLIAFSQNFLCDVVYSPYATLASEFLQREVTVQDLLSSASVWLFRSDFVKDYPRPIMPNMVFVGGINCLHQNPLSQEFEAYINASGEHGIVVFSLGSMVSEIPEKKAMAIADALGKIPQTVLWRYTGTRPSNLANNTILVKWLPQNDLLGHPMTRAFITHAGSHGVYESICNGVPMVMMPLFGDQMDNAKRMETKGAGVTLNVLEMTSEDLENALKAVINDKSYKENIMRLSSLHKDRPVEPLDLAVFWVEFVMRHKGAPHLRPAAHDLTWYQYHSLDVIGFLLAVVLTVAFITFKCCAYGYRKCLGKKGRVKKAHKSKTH

UGT1A1 in HLMs = target: T2, UGT1A1 in HLMs (Homo sapiens, UniProt P22309); format: biochemical; details: for Inhibition type: HLM, Lineweaver-Burk and Dixon plots; for time dependence of UGT1A1 inhibition: data not shown; for phase II metabolites of the inhibitor in the incubations: UGT1A1/HLM incubations with UDPGA
T2 sequence (P22309 26-533): T1 sequence (P22309 26-533)

[1] = Nonspecific binding to HLMs; format: in vitro ADME, human; details: HLMs 0.2 mg/mL
[2] = Maximum plasma concentration in humans after oral administration; details: human, calculated as Cmax × fu; icotinib 125 mg × 3 daily, erlotinib 150 mg

SMILES | Ki (UGT1A1) [µM] | IC50 (UGT1A1; IC50, recombinant human UGT1A1 0.06 mg/mL, NCHN-4-O-glucuronidation) [µM] | activity at 50 min, 10 µmol/L (UGT1A1) [%] | Inhibition type (UGT1A1) | Ki (UGT1A1 in HLMs) [µM] | Inhibition type (UGT1A1 in HLMs) | fold difference in Ki between icotinib and erlotinib (UGT1A1 in HLMs; HLMs, NCHN-O-glucuronidation) | time dependence of UGT1A1 inhibition (UGT1A1 in HLMs; HLMs) | IC50 (UGT1A1 in HLMs; IC50, HLM 0.2 mg/mL, NCHN-4-O-glucuronidation) [µM] | phase II metabolites of the inhibitor in the incubations (UGT1A1 in HLMs) | binding to HLMs [1] | fraction unbound (Binding to human plasma) | Cmax,u [2] [nM]
C#Cc1cccc(Nc2ncnc3cc4c(cc23)OCCOCCOCCO4)c1 [Icotinib, 4-[(3-ethynylphenyl)amino]-6,7-benzo-12-crown-4-quinazoline hydrochloride] | 10 | 8.76 ± 0.78 | 36 | Noncompetitive | 8.55 | Noncompetitive | about 7 fold | not time-dependent | 5.15 ± 0.28 | no phase II metabolites | negligible binding | 0.11 | 530
C#Cc1cccc(Nc2ncnc3cc(OCCOC)c(OCCOC)cc23)c1 [Erlotinib] |  |  | 19 | Noncompetitive |  | Noncompetitive |  | not time-dependent |  | no phase II metabolites | negligible binding | 0.09 | 550
